In brackets after ≈: the same amount, converted by molar mass.
Assays:
brain tumor cell lines = test: Cytotoxicity (IC50) on brain tumor cell lines, pooled statement; format: cell-based; settings: read-out: IC50 to brain tumor cell lines
Protocol: The effects on cell viability after the treatments with different concentrations of the Angelicae sinensis extracts or the active components purified therefrom were evaluated by modified MTT assay in triplicate. Briefly, the cells (5×10^3) were incubated into 96-well plates containing 100 μl of a growth medium. The cells were permitted to adhere for 24 hours, then treated with 100 μl of the herbal extracts or the active components dissolved in the medium. The control contained DMSO of <0.02% (v/v). After 24, 48 and 72 h incubation, the drug-containing medium was replaced by 50 μl of fresh medium, and cells in each well were incubated in 50 μl of 400 μg/ml MTT for 6-8 h. The medium and MTT were removed later and 100 μl of DMSO was added to each well and to the control, to dissolve the soluble components. Absorbance at 550 nm of the solutions was measured with MRX Microtiter Plate Luminometer (DYNEX, USA). The absorbance of untreated cells was considered as 100%. To evaluate the effects of the extracts or the active components on cell growth rate of GBM cells, 5×10^3 exponentially growing cells were treated with different concentrations for 24, 48, or 72 h. The cytotoxicity of each test substance was determined as an IC50 value, which represents the drug concentration required to cause 50% inhibition. All experiments in this study were performed in triplicate.

RG2 cells = test: In situ (intra-cranial) RG2 GBM tumor in rats, MRI tumor volume; format: in vivo, F344 rats; settings: BP 300 mg/kg/day s.c. day 4-8, i.c. RG2
Protocol: The RG2 cells (rat GBM) and DBTRG-05MG cells (human GBM) were used in animal experiments to monitor the anti-tumor activities of AS-C and BP. Male F344 rat (230-260 g) and male Foxn1 nu/nu mice (10-12 weeks) were obtained from National Laboratory Animal Center (Taipei, Taiwan). All procedures were performed in compliance with the Standard Operation Procedures of the Laboratory Animal Center of Tzu Chi University (Hualien, Taiwan). Animals were kept under pathogen-free conditions and fed a standard laboratory diet. The DBTRG-05MG cells (human GBM) and RG2 cells (rat GBM) were prepared for nude mice xenografts and rat allogenics, respectively.
The cytotoxic effect of AS-C on in situ tumor was determined with RG2 cells. […] Tumor volumes were measured and calculated by 3-T unit MRI (General Electric, Wisconsin, USA) with echo-planar imaging capability (Signa LX 3.8, General Electric, Wisconsin, USA) in Buddhist Tzu Chi General Hospital (Hualien, Taiwan). […]
The rats in two groups (6/group) were implanted i.c. (striatum) with 5×10^4 RG2 cells, and randomly treated with BP (300 mg/kg/day) or vehicle s.c. in the hind flank region after tumor cell implantation at day 4, 5, 6, 7 and 8 for five dosages. Tumor volume was measured and calculated by MRI. […] Finally, the whole tumor sizes (mm^3) were measured and calculated for each group.

## CCCC=C1OC(=O)c2ccccc21 [BP, n-Butylidenephthalide]
Brain tumor cell lines
  IC50: 1.4 to 10 µg/mL (≈ 7.44 to 53.1 µM)
RG2 cells
  mean tumor volume at day 14 (MRI): 46.6±1.8 mm^3
  mean tumor volume at day 16 (MRI): 91.68±8.3 mm^3
